# Measurements taken from patent publication US20220315572A1, “SUBSTITUTED CYANOPYRROLIDINES WITH ACTIVITY AS USP30 INHIBITORS” (MISSION THERAPEUTICS LIMITED, priority 2019, published 2022).
# pEC50, pIC50: −log10 of the molar value. Read-outs that look alike come from different tables or passages of the source.
# Assays:
# [1] = tested on: USP2, USP10, USP16, USP21, USP22, USP25, USP28, USP35, USP46; assay: DUB biochemical IC50 assays, nine DUBs; conditions: for fold more potent against USP30 than against the nine DUBs, minimum: lowest of USP2, USP10, USP16, USP21, USP22, USP25, USP28, USP35, USP46; for DUB selectivity preference for USP30 v 9 DUBs / IC50: range over the nine DUBs; for IC50: Ref. Ex. C excl. USP22, Ref. Ex. D excl. USP2, 46
# [2] = molecular target: Cathepsin V (Homo sapiens, UniProt O60911); assay: Cathepsin IC50, cathepsin V; format: biochemical
# Chain of Cathepsin V (O60911 114-334, species assumed): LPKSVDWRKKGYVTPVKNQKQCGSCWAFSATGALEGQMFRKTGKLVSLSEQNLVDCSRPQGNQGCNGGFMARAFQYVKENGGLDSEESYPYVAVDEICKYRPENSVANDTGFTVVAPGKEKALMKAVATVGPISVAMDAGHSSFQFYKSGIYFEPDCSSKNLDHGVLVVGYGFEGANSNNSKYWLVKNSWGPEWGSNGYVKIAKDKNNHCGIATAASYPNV
# [3] = tested on: Cathepsins B, K, L, S, V; assay: Cathepsin IC50, range over B, K, L, S, V; format: biochemical; conditions: for Selectivity preference for USP30 v cathepsins: range over cathepsins B, S; for Selectivity preference for USP30 v cathepsins / fold more potent against USP30 than against the cathepsins, minimum: K, L; for IC50: range over the five cathepsins; for fold more potent against USP30 than against the cathepsins, minimum: lowest of cathepsins B, S and V
# [4] = molecular target: Cathepsin S (Homo sapiens, UniProt P25774); assay: Cathepsin IC50, cathepsin S; format: biochemical
# Chain of Cathepsin S (P25774 115-331, species assumed): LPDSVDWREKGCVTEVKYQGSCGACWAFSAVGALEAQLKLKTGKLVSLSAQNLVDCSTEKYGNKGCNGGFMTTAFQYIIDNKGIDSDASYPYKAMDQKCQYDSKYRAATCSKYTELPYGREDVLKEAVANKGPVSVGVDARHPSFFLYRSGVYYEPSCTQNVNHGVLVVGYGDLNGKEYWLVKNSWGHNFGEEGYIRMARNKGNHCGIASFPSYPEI
# [5] = molecular target: T1, USP30 (Homo sapiens, UniProt Q70CQ3); assay: USP30 biochemical IC50 assay (fluorescence polarisation); conditions: for IC50: read-out: DUB IC50 (μM) USP30
# T1 construct: purchased Boston Biochem E582
# T1 sequence (Q70CQ3 57-517 limits assumed): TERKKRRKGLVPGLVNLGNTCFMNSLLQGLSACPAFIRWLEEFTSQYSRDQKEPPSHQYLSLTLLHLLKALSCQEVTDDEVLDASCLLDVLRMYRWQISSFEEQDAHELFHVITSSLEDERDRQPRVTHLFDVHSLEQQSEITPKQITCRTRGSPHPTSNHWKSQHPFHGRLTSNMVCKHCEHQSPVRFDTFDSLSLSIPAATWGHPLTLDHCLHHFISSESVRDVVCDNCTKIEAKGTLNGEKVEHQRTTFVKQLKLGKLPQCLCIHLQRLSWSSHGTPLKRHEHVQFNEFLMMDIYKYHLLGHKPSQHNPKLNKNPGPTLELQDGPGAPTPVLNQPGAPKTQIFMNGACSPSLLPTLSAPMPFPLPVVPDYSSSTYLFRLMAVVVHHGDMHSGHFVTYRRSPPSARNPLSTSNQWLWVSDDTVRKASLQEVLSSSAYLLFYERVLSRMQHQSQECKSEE
# Protocol: Dilution plates were prepared at 21 times the final concentration (2100 μM for a final concentration of 100 μM) in 50% DMSO in a 96-well polypropylene V-bottom plate (Greiner #651201). A typical 8-point dilution series would be 100, 30, 10, 3, 1, 0.3, 0.1, 0.03 μM final. Reactions were performed in duplicate in black 384 well plates (small volume, Greiner 784076) in a final reaction volume of 21 μl. Either […] of 50% DMSO or diluted compound was added to the plate. USP30 (Boston Biochem #E582) was diluted in reaction buffer (40 mM Tris, pH 7.5, 0.005% Tween 20, 0.5 mg/ml BSA, 5 mM beta-mercaptoethanol) to achieve a final assay concentration of 4 nM, and 10 μl of diluted USP30 was added to the compound. Enzyme and compound were incubated for 30 min at room temp. Reactions were initiated by the addition of 50 nM of TAMRA labelled peptide linked to ubiquitin via an iso-peptide bond as fluorescence polarisation substrate. Reactions were read immediately after addition of substrate and following a 2-hour incubation at room temperature. Readings were performed on a Pherastar Plus (BMG Labtech). λ Excitation 540 nm; λ Emission 590 nm.
# [6] = molecular target: Cathepsin B (Homo sapiens, UniProt P07858); assay: Cathepsin IC50, cathepsin B; format: biochemical
# [7] = molecular target: T2, Cathepsin K (Homo sapiens, UniProt P43235); assay: Cathepsin IC50, cathepsin K; format: biochemical
# T2 sequence (P43235 115-329): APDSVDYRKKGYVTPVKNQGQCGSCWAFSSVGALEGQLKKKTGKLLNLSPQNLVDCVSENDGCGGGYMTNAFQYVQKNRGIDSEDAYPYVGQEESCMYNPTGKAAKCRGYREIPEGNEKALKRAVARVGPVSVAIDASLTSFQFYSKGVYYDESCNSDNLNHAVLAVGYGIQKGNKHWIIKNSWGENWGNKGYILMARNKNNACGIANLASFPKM
# [8] = molecular target: Cathepsin L (Homo sapiens, UniProt P07711); assay: Cathepsin IC50, cathepsin L; format: biochemical
# Chain of Cathepsin L (P07711 114-333, species assumed): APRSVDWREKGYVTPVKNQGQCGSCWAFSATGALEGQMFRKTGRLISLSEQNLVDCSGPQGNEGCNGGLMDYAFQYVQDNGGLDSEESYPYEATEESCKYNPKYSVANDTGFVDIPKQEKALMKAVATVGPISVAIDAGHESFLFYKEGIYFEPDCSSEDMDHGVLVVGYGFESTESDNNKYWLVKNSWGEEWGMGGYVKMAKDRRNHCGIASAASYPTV
# [9] = molecular target: T3, UCHL1 (Homo sapiens, UniProt P09936); assay: DUB biochemical IC50 assay, UCHL1
# T3 sequence (P09936 1-223): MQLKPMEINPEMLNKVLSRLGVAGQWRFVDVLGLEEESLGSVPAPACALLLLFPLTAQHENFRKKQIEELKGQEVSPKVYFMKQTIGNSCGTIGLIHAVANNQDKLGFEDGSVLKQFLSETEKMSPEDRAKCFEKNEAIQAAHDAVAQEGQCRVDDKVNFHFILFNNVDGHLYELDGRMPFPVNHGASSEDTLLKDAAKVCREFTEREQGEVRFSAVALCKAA
# [10] = molecular target: T4, Endogenous USP30 (Homo sapiens, UniProt Q70CQ3); assay: USP30 endogenous cellular target engagement western blot assay (Cell TE WB); format: cell-based; conditions: Hela cells stably overexpressing YFP-Parkin, 1 hour
# T4 construct: USP30 endogenous cellular target engagement western blot (WB) assay; endogenous in cells; host or cells: HeLa stably overexpressing YFP-Parkin
# T4 sequence (Q70CQ3 1-517): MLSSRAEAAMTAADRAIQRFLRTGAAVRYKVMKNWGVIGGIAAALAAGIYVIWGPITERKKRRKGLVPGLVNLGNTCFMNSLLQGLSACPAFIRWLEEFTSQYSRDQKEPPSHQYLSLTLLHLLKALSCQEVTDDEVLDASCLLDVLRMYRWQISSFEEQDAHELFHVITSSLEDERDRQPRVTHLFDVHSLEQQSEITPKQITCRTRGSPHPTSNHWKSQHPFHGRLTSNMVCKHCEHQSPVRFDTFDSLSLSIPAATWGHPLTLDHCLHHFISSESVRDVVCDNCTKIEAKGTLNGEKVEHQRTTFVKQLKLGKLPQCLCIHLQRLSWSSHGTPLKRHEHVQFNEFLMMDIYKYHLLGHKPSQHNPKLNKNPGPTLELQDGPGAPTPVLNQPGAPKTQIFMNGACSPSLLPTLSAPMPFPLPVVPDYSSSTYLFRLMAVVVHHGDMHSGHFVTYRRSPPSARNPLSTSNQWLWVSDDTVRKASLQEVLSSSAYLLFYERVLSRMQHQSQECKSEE
# Protocol: Hela cells stably overexpressing YFP-Parkin were seeded into 6 well dishes. Once adhered, cells were treated with appropriate concentrations of test compounds or vehicle control for 1 hour at 37° C., 5% CO2. Whole cell lysates were prepared by scraping the cells into cold PBS, centrifuging and lysing in lysis buffer (50 mM Tris-base, pH 7.5, 50 mM NaCl, 1% NP-40/Igepal CA-630, 2 mM MgCl2, 10% Glycerol, 5 mM beta-mercaptoethanol, cOmplete mini tablets EDTA free (Roche), PhosStop tablets (Roche)) for 10 mins. The equivalent of 20 μg of protein from the cleared cell lysate was incubated with a final conc of 2.5 μM HA-Ahx-Ahx-Ub-VME probe at room temperature. The reaction was stopped by addition of 5×SDS sample loading buffer and proteins separated by SDS PAGE and western blotting. USP30 was detected using an anti-USP30 Sheep S746D antibody (MRC PPU Reagents and Services) and a rabbit anti sheep secondary IgG (H+L) horseradish peroxidase conjugated (Thermo #31480) and visualised using ECL reagent (GE #RPN2109) on a GE LAS4000 imager. Target engagement was measured by quantitation of the bands corresponding to USP30 and USP30 bound to the Ub-VME probe and expression of this proportion compared to vehicle treated control.
# Cell TE WB: USP30 endogenous cellular target engagement western blot (WB) assay. Assays the activity of compounds against USP30 in cells using an irreversible activity probe to monitor USP30 activity.
# [11] = Reference Examples, read-out: USP30 IC50
Structure (SMILES),"fold more potent against USP30 than against the nine DUBs, minimum [1]",DUB selectivity preference for USP30 v 9 DUBs [1],IC50 [1],IC50 [2],Selectivity preference for USP30 v cathepsins [3],IC50 [3],IC50 [4],"pIC50 [5, 11]",IC50 [6],IC50 [7],IC50 [8],"fold more potent against USP30 than against the cathepsins, minimum [3]",IC50 [9],fold more potent against USP30 than UCHL1 [9],IC50 [5],pEC50 [10],DUB selectivity preference for USP30 v UCHL1 [9],"pIC50 ([5]; USP30 biochemical IC50 assay, exemplary compounds, read-out: IC50)"
"COc1cccc(-c2cc(C(=O)N[C@@H]3CCN(C#N)C3)on2)c1 [A, reference compound]",2.7 fold,2.7-141,0.19 to 9.9 µM,5.8 µM,11-126,0.79 to 8.8 µM,8.8 µM,7.15,4.5 µM,0.79 µM,2.8 µM,,,,,,,
"N#CN1CCC(NC(=O)c2cc(-c3cccc(Cl)c3)no2)C1 (stereo not drawn) [B, reference compound]",8 fold,8-232,0.35 to 10.2 µM,4.2 µM,18-95,0.79 to 4.2 µM,2.3 µM,7.36,2.9 µM,1.1 µM,0.79 µM,18 fold,,,,,,
"C[C@H]1CN(C#N)C[C@@H]1NC(=O)c1cnc(-c2ccccc2)s1 [C, reference compound]",0.96 fold,0.96-342,0.025 to 8.9 µM,4 µM,58-227,1.5 to 5.9 µM,5.9 µM,7.59,4.8 µM,2.4 µM,1.5 µM,58 fold,,,,,,
N#Cc1cccc(-c2ccn3c(C(=O)N[C@@H]4CCN(C#N)C4)cnc3c2)c1 [D],4.6 fold,4.6-124,0.19 to 5.1 µM,3 µM,56-168,2.3 to 6.9 µM,6.9 µM,7.39,,,2.3 µM,56 fold,,,,,,
"N#CN1CC[C@H](C(=O)Nc2ncc(-c3ccccc3)s2)C1 [E, reference compound]",,,,,3.2-17,1 to 5.3 µM,,6.51,5.3 µM,2.7 µM,1 µM,3.2 fold,0.25 µM,0.8 fold,0.31 µM,,,
"COC[C@@H]1C[C@@H](NC(=O)c2nnc(-c3cccc(C#N)c3)o2)CN1C#N [Example 2, N-((3R,5S)-1-Cyano-5-(methoxymethyl)pyrrolidin-3-yl)-5-(3-cyanophenyl)-1,3,4-oxadiazole-2-carboxamide]",,186-8100,≥ 6.9 µM,> 300 µM,880-8100,32.8 to 300 µM,> 300 µM,,> 300 µM,113 µM,32.8 µM,,> 300 µM,,,7.05,8100,7.43
"N#CN1CCC(C(=O)Nc2nnc(-c3ccccc3)s2)C1 (stereo not drawn) [F, reference compound]",,,,0.82 µM,0.34-14,0.24 to 9.8 µM,2.1 µM,6.15,9.8 µM,0.86 µM,0.24 µM,0.34 fold,3.2 µM,4.6 fold,,,4.6,
"CC1CC(C(=O)Nc2ncc(-c3ccccc3)s2)CN1C#N (stereo not drawn) [G, reference compound]",,,,,,,,5.36,,,,,6.8 µM,1.5 fold,4.4 µM,,,
